Results on two compounds are retold here after ChEMBL document CHEMBL3217594, “Structureactivity relationships of methyl-lysine reader antagonists” (Medchemcomm, 2012).

The source made the active and inactive calls. No cut-off for these calls is given here.

The subject of assay [1] is T1, Lethal(3)malignant brain tumor-like protein 1 (Homo sapiens), Q9Y468 [D355N].
T1 sequence (whole entry): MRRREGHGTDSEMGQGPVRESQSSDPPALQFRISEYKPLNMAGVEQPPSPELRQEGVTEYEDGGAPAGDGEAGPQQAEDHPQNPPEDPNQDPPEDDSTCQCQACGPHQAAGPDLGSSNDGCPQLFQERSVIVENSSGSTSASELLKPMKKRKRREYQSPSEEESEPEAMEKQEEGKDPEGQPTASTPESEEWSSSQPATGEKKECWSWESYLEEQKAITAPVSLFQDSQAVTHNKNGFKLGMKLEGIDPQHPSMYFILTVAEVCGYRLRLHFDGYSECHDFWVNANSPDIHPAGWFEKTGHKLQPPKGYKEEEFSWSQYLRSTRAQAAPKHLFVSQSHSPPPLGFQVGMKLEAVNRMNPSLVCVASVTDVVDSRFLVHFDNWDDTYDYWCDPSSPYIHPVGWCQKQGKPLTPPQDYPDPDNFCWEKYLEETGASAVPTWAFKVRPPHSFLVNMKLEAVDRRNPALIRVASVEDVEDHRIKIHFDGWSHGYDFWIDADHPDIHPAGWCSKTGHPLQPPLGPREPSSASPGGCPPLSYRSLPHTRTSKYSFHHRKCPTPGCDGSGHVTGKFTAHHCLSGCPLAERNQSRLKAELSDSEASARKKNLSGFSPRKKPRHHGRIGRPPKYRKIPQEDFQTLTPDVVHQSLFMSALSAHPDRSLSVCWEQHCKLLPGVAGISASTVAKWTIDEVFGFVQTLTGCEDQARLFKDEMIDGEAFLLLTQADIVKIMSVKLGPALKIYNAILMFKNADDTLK
Particulars: 5 to 25 uM.
Description: Inhibition of GST-fused L3MBTL1 3xMBT-D355N mutant (unknown origin)/biotinylated H4K20Me1 peptide interaction at 5 to 25 uM by pull down assay based western blot analysis

The target in assay [2] is TP53-binding protein 1 (Homo sapiens) (UniProt Q12888). The experiment in a line: Effect on GST-fused 53BP1 Tudor domain (unknown origin)/biotinylated H4K20Me1 peptide interaction assessed as binding of 53BP1 to H4K20Me1 at 25 uM by pull down assay based western blot analysis. A general note: In western blotting, separated proteins are transferred to a membrane and probed.

Assay [3] shares this target. Put plainly: Effect on GST-fused 53BP1 Tudor domain (unknown origin)/biotinylated H4K20Me1 peptide interaction assessed as binding of 53BP1 to H4K20Me1 at 5 uM by pull down assay based western blot analysis.

TP53-binding protein 1 (Homo sapiens), sequence (Q12888 whole entry, the tested form may be a part): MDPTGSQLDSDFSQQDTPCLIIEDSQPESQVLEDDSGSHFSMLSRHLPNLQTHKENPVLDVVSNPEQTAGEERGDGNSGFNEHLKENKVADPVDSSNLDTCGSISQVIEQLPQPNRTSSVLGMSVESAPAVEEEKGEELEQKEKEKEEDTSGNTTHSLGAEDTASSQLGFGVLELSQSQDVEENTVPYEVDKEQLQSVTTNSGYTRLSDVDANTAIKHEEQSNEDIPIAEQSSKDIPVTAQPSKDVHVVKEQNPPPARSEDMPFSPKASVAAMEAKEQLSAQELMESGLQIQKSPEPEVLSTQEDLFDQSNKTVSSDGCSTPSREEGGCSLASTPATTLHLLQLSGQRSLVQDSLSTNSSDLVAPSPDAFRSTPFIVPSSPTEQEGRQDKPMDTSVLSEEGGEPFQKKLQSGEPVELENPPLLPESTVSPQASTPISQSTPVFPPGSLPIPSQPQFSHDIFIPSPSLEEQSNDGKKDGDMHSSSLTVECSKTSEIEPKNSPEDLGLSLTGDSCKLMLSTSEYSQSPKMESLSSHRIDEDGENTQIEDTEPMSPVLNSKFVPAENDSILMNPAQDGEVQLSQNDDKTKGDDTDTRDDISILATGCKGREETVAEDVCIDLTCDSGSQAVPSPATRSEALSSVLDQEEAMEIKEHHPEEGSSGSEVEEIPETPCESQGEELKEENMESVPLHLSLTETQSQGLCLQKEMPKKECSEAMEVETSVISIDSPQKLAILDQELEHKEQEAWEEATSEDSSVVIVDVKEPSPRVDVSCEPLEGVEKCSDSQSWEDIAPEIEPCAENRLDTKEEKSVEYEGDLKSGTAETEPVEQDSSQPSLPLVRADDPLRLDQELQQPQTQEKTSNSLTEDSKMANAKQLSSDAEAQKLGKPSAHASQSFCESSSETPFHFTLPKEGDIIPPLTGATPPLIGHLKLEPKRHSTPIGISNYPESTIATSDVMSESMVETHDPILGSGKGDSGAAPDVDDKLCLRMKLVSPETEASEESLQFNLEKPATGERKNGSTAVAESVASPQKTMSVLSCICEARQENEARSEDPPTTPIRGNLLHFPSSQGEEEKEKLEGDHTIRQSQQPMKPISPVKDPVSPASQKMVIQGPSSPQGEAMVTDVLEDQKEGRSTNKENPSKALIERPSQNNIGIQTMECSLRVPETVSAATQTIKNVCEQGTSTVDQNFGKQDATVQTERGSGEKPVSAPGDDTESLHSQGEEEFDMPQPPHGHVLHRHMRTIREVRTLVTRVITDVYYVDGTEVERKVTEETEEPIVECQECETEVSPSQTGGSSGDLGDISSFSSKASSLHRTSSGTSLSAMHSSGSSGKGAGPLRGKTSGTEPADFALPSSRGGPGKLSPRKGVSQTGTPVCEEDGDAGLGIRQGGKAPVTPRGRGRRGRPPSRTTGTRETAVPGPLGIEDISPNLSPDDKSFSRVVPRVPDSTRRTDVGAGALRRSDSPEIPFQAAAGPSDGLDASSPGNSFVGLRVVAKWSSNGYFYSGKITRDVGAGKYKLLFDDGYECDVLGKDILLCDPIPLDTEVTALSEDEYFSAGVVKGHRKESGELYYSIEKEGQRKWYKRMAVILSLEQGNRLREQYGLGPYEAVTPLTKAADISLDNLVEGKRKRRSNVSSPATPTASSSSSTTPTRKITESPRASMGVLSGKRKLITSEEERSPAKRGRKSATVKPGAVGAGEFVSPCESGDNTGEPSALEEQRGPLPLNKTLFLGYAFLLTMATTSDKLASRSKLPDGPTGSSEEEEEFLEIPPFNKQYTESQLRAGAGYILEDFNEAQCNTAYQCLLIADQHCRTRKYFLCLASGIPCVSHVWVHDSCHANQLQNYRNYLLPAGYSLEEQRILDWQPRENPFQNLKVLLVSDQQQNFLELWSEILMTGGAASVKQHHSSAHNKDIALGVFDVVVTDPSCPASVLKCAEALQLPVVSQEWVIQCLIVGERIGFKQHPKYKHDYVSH

As to `O=C(c1cccc(Br)c1)N1CCC(N2CCCCC2)CC1`, the inhibition entry in assay [1] is “inactive”. Also, the Activity worked out at 91% in assay [2] and 120% in assay [3].

With `O=C(c1cccc(Br)c1)N1CCC(N2CCCC2)CC1`, in assay [1], the inhibition result is “inactive”. In addition, the Activity was found to be 106% in assay [2] and 124% in assay [3].
